Results reported in patent US20260335323A1, “CHIMERIC MOLECULE” (UCL Business Ltd, priority 2023, published 2026).

Tested on: SH-SY5Y cells
Experiment: TMRM assay of mitochondrial membrane potential
Assay type: cell-based, human
Procedure: FIG. 1. The structure of AUTAC-4 is shown in (A). (B) Representative images of SH-SY5Y cells stably expressing the mito-mKeima reporter treated with AUTAC4 for 18 h. Nuclei were stained with Hoechst 33342, healthy mitochondria are shown in green and mitochondria in lysosomes are shown in red. (C-E) Fold change in mitophagy index over time after treatment with increasing concentrations of AUTAC4 under treatment with DMSO (C), 3 mM CCCP (D) or 0.1/0.1 mM antimycin/oligomycin (E), also for 18 h. (F) Quantification of changes in mitochondrial membrane potential over time (DYm) by measuring the TMRM relative fluorescence intensity (RFI) treated with DMSO, 10 mM CCCP, 10 mM and 20 mM AUTAC4. Normalised to number of nuclei. (G) Representative western blot of SH-SY5Y cells treated with DMSO, 10 mM AUTAC4 or 10 mM AUTAC4+0.1/0.1 mM antimycin/oligomycin for 18 h and, probed for p62, b-actin and Tom20. Quantifications of western blot for changes in Tom20 and p62 levels shown in (H) and (I), respectively. (J) Representative images of PANC-1 cells stably expressing the mCherry-EGFP-LC3 tandem reporter. Nuclei stained with Hoechst 33342, autophagosomes are shown in the EGFP channel and autolysosomes in the mCherry channel. Fold change in the number of autophagosome (K) and autolysosome (L) puncta in AUTAC4 treated cells. […] For mito-mKeima experiments, statistics were calculated by Two-way ANOVA with Tukey's multiple comparisons test. For western blots, TMRM and LC3 tandem reporter assay, statistics were calculated with one-way ANOVA with Tukey's multiple comparisons test.
FIG. 5. […] (B) Quantification of the colocalised ULK1 to TOM20 spot area of PANC-1 cells treated with DMSO, 5 mM CCCP, 10 mM BL-918, 10 mM BL-918+5 mM CCCP, […] NZ-65, […] NZ-65+5 mM CCCP, […] NZ-66, […] NZ-66+5 mM CCCP, 50 mM TSPO ligand, […] NZ-65+50 mM TSPO ligand, […] NZ-66+50 mM TSPO ligand. (C) Western blot of SH-SY5Y cells treated with 1 mM ULKTACs, 5 mM CCCP or both, probed for Mfn2, b-Actin and Tom20—quantifications are shown in (D) for Mfn2, normalised to Actin. […]

SMILES | mitochondrial membrane potential (TMRM)
O=C(Nc1ccc(F)cc1F)[C@H](NC(=S)Nc1cc(C(F)(F)F)cc(C(F)(F)F)c1)c1ccccc1 [BL-918, reference compound] | depolarisation of the outer mitochondrial membrane at higher concentrations
O=C(Nc1cc(C(F)(F)F)cc(C(F)(F)F)c1)N[C@@H](C(=O)Nc1ccc(F)cc1F)c1ccc(OCc2cn(CCOCCOCCNC(=O)C(=O)c3c(-c4ccccc4)[nH]c4ccccc34)nn2)cc1 [NZ-65, (R)-2-(3-(3,5-bis(trifluoromethyl)phenyl)ureido)-N-(2,4-difluorophenyl)-2-(4-((1-(2-(2-(2-(2-oxo-2-(2-phenyl-1H-indol-3-yl)acetamido)ethoxy)ethoxy)ethyl)-1H-1,2,3-triazol-4-yl)methoxy)phenyl) acetamide] | neither NZ-65 nor NZ-66 showed any effect
O=C(Nc1cc(C(F)(F)F)cc(C(F)(F)F)c1)N[C@@H](C(=O)Nc1ccc(F)cc1F)c1ccc(OCc2cn(CCCCCCNC(=O)C(=O)c3c(-c4ccccc4)[nH]c4ccccc34)nn2)cc1 [NZ-66, (R)-2-(3-(3,5-bis(trifluoromethyl)phenyl)ureido)-N-(2,4-difluorophenyl)-2-(4-((1-(6-(2-oxo-2-(2-phenyl-1H-indol-3-yl)acetamido)hexyl)-1H-1,2,3-triazol-4-yl)methoxy)phenyl) acetamide] | neither NZ-65 nor NZ-66 showed any effect
